US6989443B2, “Carboranylporphyrins and uses thereof” (Brookhaven Science Associates, LLC, priority 2004, dated 2006)

Experiments:
[1] = system: malignant brain tumors; details: in vivo; cited from earlier work
[2] = system: EMT-6 mammary carcinomas; test: Biodistribution of porphyrin IX in mice bearing EMT-6 carcinomas (tissue boron analyses); assay type: in vivo, BALB/c mice; details: for Average boron concentration, Blood / Average boron concentration, Brain / Average boron concentration, EMT-6 Tumor / Average boron concentration, Liver: 87 mg/kg (30 mg B/kg) in 3 i.p. injections over 8 hours, n = 5
Procedure: (§1) BALB/c mice bearing subcutaneously implanted EMT-6 mammary carcinomas implanted on the dorsal thorax were given a total dose of 87 milligrams porphyrin compound (IX) per kilogram body weight (30 mg B/kg) in 3 intraperitoneal (i.p.) injections over a period of 8 hours. At two and four days after the last injection, mice were euthanized, and tumor, blood, brain, and liver were removed for boron analyses. The blood was first analyzed for hematologic parameters that indicate toxicity before it was analyzed for boron.

[3] = Weight changes and hematologic parameters from porphyrin (IX) in mice; details: for % Weight change / Granulocytes / Lymphocytes / Platelets: median (and range)
Procedure: as §1

[4] = 2 days after last injection, 87 mg/kg (30 mg B/kg)
[5] = 4 days after last injection, 87 mg/kg (30 mg B/kg)

N[C@@H](Cc1ccc(B(O)O)cc1)C(=O)O [BPA, p-boronophenylalanine]
chemical toxicity [1]: low chemical toxicity

Copper meso-5,10,15,20-tetrakis[3-(3,5-o-dicarboranyl methoxybenzyloxy)phenyl]porphyrin [Porphyrin compound (IX)]
Average boron concentration, Blood ([2]; 2 days after last injection): 0.5 ± 0.2 μg B/g
Average boron concentration, Brain ([2]; 2 days after last injection): 0.2 ± 0.0 μg B/g
Average boron concentration, EMT-6 Tumor ([2]; 2 days after last injection): 43.5 ± 10.0 μg B/g
Average boron concentration, Liver ([2]; 2 days after last injection): 353 ± 55 μg B/g
Average boron concentration, Blood ([2]; 4 days after last injection): 0.2 ± 0.1 μg B/g
Average boron concentration, Brain ([2]; 4 days after last injection): 0.3 ± 0.2 μg B/g
Average boron concentration, EMT-6 Tumor ([2]; 4 days after last injection): 27.8 ± 7.6 μg B/g
Average boron concentration, Liver ([2]; 4 days after last injection): 250 ± 70 μg B/g
tumor to brain boron ratio ([2]; EMT-6 tumor-bearing mice, compared with tumor to blood ratio): even higher
tumor boron concentrations, adequacy for therapy ([2]; particularly at the two-day time-point): adequate for therapy
weight change compared to solvent-injected mice ([3]; 87 mg/kg (30 mg B/kg)): no differences between porphyrin- and solvent-injected mice
platelet count compared to solvent-only mice ([3]; 2-day time point): small but significant decrease
platelet count compared to solvent-only group ([3]; 4-day time point): rebounded to a level greater than those from the solvent-only group
% Weight change [3, 4]: 0.4 (−4.9–2.5) %
Granulocytes [3, 4]: 53 (42–60) % WBC
Lymphocytes [3, 4]: 44 (37–56) % WBC
Platelets [3, 4]: 193 (51–432) 10^3/mm^3
% Weight change [3, 5]: −0.6 (−4.7–1.5) %
Granulocytes [3, 5]: 62 (57–67) % WBC
Lymphocytes [3, 5]: 35 (30–39) % WBC
Platelets [3, 5]: 917 (670–1128) 10^3/mm^3
